Results as given in patent US4080449A, “1,2,4,5-Tetrahydro-3H-2-benzazepin-3-ones” (U C B, Societe Anonyme, priority 1976, dated 1978).
Where “and” joins values, the source holds several entries; their conditions need not be identical. Equal values may be shown once.

Experiments:
[1] = pharmacological properties of the compounds according to the present invention (Table III footnote, test not specified); assay type: in vivo
[2] = tested on: spinal fixation time; assay: spinal fixation test (elementary model of memory) after unilateral cerebellar lesion; assay type: in vivo; details: rat, i.p., 0.1 mmole/kg (A 17.5, B 22, C 23.7 mg/kg); spinal section 35 minutes after onset of asymmetry
Excerpt: Action on the mnemic processes is shown particularly by the reduction in the time for spinal fixation, a test which has been described in the literature (see C. Giurgea and F. Mouravieff-Lesuisse, Arch. Int. Pharmacodyn, 191/2, (1971), 279) as an elementary model of memory which is endowed with a pharmacological reactivity in good correlation with clinical physiopathology. In the rat, after unilateral lesion of the cerebellum, there is a postural asymmetry of the hind paws. This asymmetry may persist, even after spinal section, if the animal has been in this situation for a sufficiently long time. This time, which is called the spinal fixation time, is 45 minutes under the experimental conditions. On the other hand, if spinal section is performed before the expiry of this period, for example 35 minutes after the onset of the asymmetry, the latter disappears. […] Conversely, any product which allows the rats to retain the asymmetry (thus achieving spinal fixation) when the spinal section is carried out after 35 minutes, is regarded as being active.
Under these conditions, administration of a compound according to the present invention, for example 2-methyl-1,2,4,5-tetrahydro-3H-2-benzazepin-3-one (compound A), 2-carbamoylmethyl-1,2,4,5-tetrahydro-3H-2-benzazepin-3-one (compound B) and 5-phenyl-1,2,4,5-tetrahydro-3H-2-benzazepin-3-one (compound C) produces the following effects: […]

[3] = tested on: withdrawal reaction of a rat's paw; assay: active avoidance test (memory retention, paw pressure withdrawal); assay type: in vivo; details: for Stimulus initiating the avoidance reaction 24 hours after the first stimulation: s.c.; for minimal effective dose: sc, minimum dose which lowers the stimulus to below 110 g
Excerpt: The principle of the active avoidance test, which has been developed in our laboratories and used for this purpose, may be described as follows: the withdrawal reaction of a rat's paw subjected to an increasing and measured pressure is observed. The pressure at which the withdrawal reaction is produced is called the reaction threshold. The latter is expressed in grams and thus corresponds to the minimum pressure which, when applied to the paw of the animals, causes withdrawal. It is read off directly from a scale of the apparatus used. […] Use is made of a minimum of 20 rats per test (10 treated rats and 10 control rats), the active dose being defined as the minimum dose which lowers the stimulus to below 110 g.

[4] = tested on: lethality induced by a curarizing agent, oxydipentonium chloride (Brevatonal); assay: Brevatonal test (protection against lethality induced by oxydipentonium chloride, hypoxia); assay type: in vivo; details: mice, i.p.
Experimental: At the doses used, this curarizing agent brings about a respiratory depression which, in turn, brings about a hypoxi-hypercapnic syndrome. A compound capable of protecting the brain during this short period of hypoxia ensures survival. The compounds are administered to groups of 10 mice one hour before the injection of the curarizing agent; concurrently herewith, a control group of 10 mice is given a physiological salt solution prior to the curarizing agent. For each compound, the proportion of surviving mice is compared with the proportion of surviving control mice by the "Fisher exact probability test". This test, called the Brevatonal test, has also been developed in our laboratories.
Intraperitoneal administration (i.p.) of compounds according to the present invention, namely, 2-methyl-1,2,4,5-tetrahydro-3H-2-benzazepin-3-one (compound A), 2,4-dimethyl-1,2,4,5-tetrahydro-3H-2-benzazepin-3-one (compound G), 2-isobutyl-4-methyl-1,2,4,5-tetrahydro-3H-2-benzazepin-3-one(compound H), 7-chloro-2-methyl-1,2,4,5-tetrahydro-3H-2-benzazepin-3-one (compound J) 8-chloro-2-methyl-1,2,4,5-tetrahydro-3H-2-benzazepin-3-one (compound K) and 8-methyl-2-pentyl-1,2,4,5-tetrahydro-3H-2-benzazepin-3-one (compound L), produces under these conditions the effects set out in the following Table II.

[5] = LD50 determined intraperitoneally in the rat (Spearman-Karber); details: in vivo, ip, intraperitoneal
Experimental: The LD50 doses were determined intraperitoneally in the rat and calculated by using the method of Spearman-Karber (D. J. Finney, Statistical Methods in Biological Assay, pub. Griffin & Co., London, 1952, p. 524).

[6] = tested on: spinal fixation time; details: rat, 30 mg/kg (0.2 millimole/kg), same conditions; C. Giurgea and F. Mouravieff-Lesuisse, loc.cit.; cited from earlier work
[7] = 0.175 mg/kg, control (0 mg/kg) A 164, F 154
[8] = 2 mg/kg (0.01 mmole/kg), control G 1/10, H 2/10

O=C1CCc2ccccc2CN1 [1,2,4,5-tetrahydro-3H-2-benzazepin-3-one]
pharmacological properties of the compounds according to the present invention [1]: does not have th

CN1Cc2ccccc2CCC1=O [A, 2-methyl-1,2,4,5-tetrahydro-3H-2-benzazepin-3-one]
spinal fixation after 35 minutes (animals with fixation) [2]: three animals out of five | Stimulus initiating the avoidance reaction 24 hours after the first stimulation ([3]; 0.09 mg/kg, control (0 mg/kg) 164): 146 g | Stimulus initiating the avoidance reaction 24 hours after the first stimulation [3, 7]: 106 g | minimal effective dose [3]: 0.175 mg/kg and 1 µmol/kg | Fisher exact probability ([4]; 55 mg/kg (0.32 mmole/kg)): < 0.005 | Proportion of survivors, treated animals ([4]; 55 mg/kg (0.32 mmole/kg), control 0/10): 7/10 | LD50 [5]: 760 mg/kg

NC(=O)CN1Cc2ccccc2CCC1=O [B, 2-carbamoylmethyl-1,2,4,5-tetrahydro-3H-2-benzazepin-3-one]
spinal fixation after 35 minutes (animals with fixation) [2]: two animals out of four

O=C1CC(c2ccccc2)c2ccccc2CN1 (stereo not shown) [C, 5-phenyl-1,2,4,5-tetrahydro-3H-2-benzazepin-3-one]
spinal fixation after 35 minutes (animals with fixation) [2]: four animals out of five

COc1ccc2c(c1)CCC(=O)N(C)C2 [D, 7-methoxy-2-methyl-1,2,4,5-tetrahydro-3H-2-benzazepin-3-one]
Stimulus initiating the avoidance reaction 24 hours after the first stimulation ([3]; 0.205 mg/kg, control (0 mg/kg) 165): 118 g | Stimulus initiating the avoidance reaction 24 hours after the first stimulation ([3]; 1 mg/kg, control (0 mg/kg) 165): 90 g | minimal effective dose [3]: 1 mg/kg and 5 µmol/kg

CCCCCN1Cc2ccccc2CC(C)C1=O (stereo not shown) [E, 4-methyl-2-pentyl-1,2,4,5-tetrahydro-3H-2-benzazepin-3-one]
Stimulus initiating the avoidance reaction 24 hours after the first stimulation ([3]; 0.24 mg/kg, control (0 mg/kg) 166): 122 g | Stimulus initiating the avoidance reaction 24 hours after the first stimulation ([3]; 0.49 mg/kg, control (0 mg/kg) 166): 89 g | minimal effective dose [3]: 0.49 mg/kg and 2 µmol/kg

Cc1ccc2c(c1)CNC(=O)CC2 [F, 8-methyl-1,2,4,5-tetrahydro-3H-2-benzazepin-3-one]
Stimulus initiating the avoidance reaction 24 hours after the first stimulation [3, 7]: 121 g | Stimulus initiating the avoidance reaction 24 hours after the first stimulation ([3]; 0.35 mg/kg, control (0 mg/kg) 154): 111 g | Stimulus initiating the avoidance reaction 24 hours after the first stimulation ([3]; 0.87 mg/kg, control (0 mg/kg) 154): 101 g | minimal effective dose [3]: 0.87 mg/kg and 5 µmol/kg

CC1Cc2ccccc2CN(C)C1=O (stereo not shown) [G, 2,4-dimethyl-1,2,4,5-tetrahydro-3H-2-benzazepin-3-one]
Fisher exact probability ([4]; 2 mg/kg (0.01 mmole/kg)): < 0.05 | Proportion of survivors, treated animals [4, 8]: 6/10

CC(C)CN1Cc2ccccc2CC(C)C1=O (stereo not shown) [H, 2-isobutyl-4-methyl-1,2,4,5-tetrahydro-3H-2-benzazepin-3-one]
Fisher exact probability ([4]; 2 mg/kg (0.01 mmole/kg)): < 0.005 | Proportion of survivors, treated animals [4, 8]: 9/10 | Fisher exact probability ([4]; 7 mg/kg (0.032 mmole/kg)): < 0.05 | Proportion of survivors, treated animals ([4]; 7 mg/kg (0.032 mmole/kg), control 2/10): 7/10 | Fisher exact probability ([4]; 23 mg/kg (0.1 mmole/kg)): < 0.001 | Proportion of survivors, treated animals ([4]; 23 mg/kg (0.1 mmole/kg), control 1/10): 9/10

CN1Cc2ccc(Cl)cc2CCC1=O [J, 7-chloro-2-methyl-1,2,4,5-tetrahydro-3H-2-benzazepin-3-one]
Fisher exact probability ([4]; 21 mg/kg (0.1 mmole/kg)): < 0.01 | Proportion of survivors, treated animals ([4]; 21 mg/kg (0.1 mmole/kg), control 1/10): 7/10 | Fisher exact probability ([4]; 66 mg/kg (0.32 mmole/kg)): < 0.005 | Proportion of survivors, treated animals ([4]; 66 mg/kg (0.32 mmole/kg), control 1/10): 8/10

CN1Cc2cc(Cl)ccc2CCC1=O [K, 8-chloro-2-methyl-1,2,4,5-tetrahydro-3H-2-benzazepin-3-one]
Fisher exact probability ([4]; 21 mg/kg (0.12 mmole/kg as printed)): < 0.05 | Proportion of survivors, treated animals ([4]; 21 mg/kg (0.12 mmole/kg as printed), control 1/10): 6/10 | Fisher exact probability ([4]; 66 mg/kg (0.37 mmole/kg as printed)): < 0.05 | Proportion of survivors, treated animals ([4]; 66 mg/kg (0.37 mmole/kg as printed), control 1/10): 6/10

CCCCCN1Cc2cc(C)ccc2CCC1=O [L, 8-methyl-2-pentyl-1,2,4,5-tetrahydro-3H-2-benzazepin-3-one]
Fisher exact probability ([4]; 78 mg/kg (0.32 mmole/kg)): < 0.05 | Proportion of survivors, treated animals ([4]; 78 mg/kg (0.32 mmole/kg), control 0/5): 6/10

NC(=O)CN1CCCC1=O [piracetam, reference compound]
Stimulus initiating the avoidance reaction 24 hours after the first stimulation ([3]; 1.5 mg/kg, control (0 mg/kg) 153): 120 g | Stimulus initiating the avoidance reaction 24 hours after the first stimulation ([3]; 3.5 mg/kg, control (0 mg/kg) 153): 90 g | minimal effective dose [3]: 3.5 mg/kg and 25 µmol/kg | retention in active avoidance test ([3]; tested 24 hours later, versus control animals, dose not given in sentence): significant degree of retention | Fisher exact probability ([4]; 45 mg/kg (0.32 mmole/kg)): not significant | Proportion of survivors, treated animals ([4]; 45 mg/kg (0.32 mmole/kg), control 0/10): 1/10 | Fisher exact probability ([4]; 142 mg/kg (1 mmole/kg)): not significant | Proportion of survivors, treated animals ([4]; 142 mg/kg (1 mmole/kg), control 2/10): 4/10 | Fisher exact probability ([4]; 454 mg/kg (3.2 mmole/kg)): < 0.005 | Proportion of survivors, treated animals ([4]; 454 mg/kg (3.2 mmole/kg), control 1/10): 8/10 | spinal fixation (animals with fixation) [6]: four animals out of nine
